In one test the target is T1, MNK1 (Homo sapiens, UniProt Q9BUB5).
T1 construct: purchased Life Technologies or Carna Biosciences PV6023 or 02-145; host or cells: baculovirus infected insect cells
Briefly: MNK inhibition assay (Z-Lyte kinase assay, Ser/Thr 7 peptide). The format is biochemical. Particulars: for IC50: recombinant GST-MNK1, 3 hours at 31° C.; for inhibition at 1 µM / inhibition at 10 µM: read-out: Inhibition of MNK1 activity at indicated concentration. From the text:
For the measurement of the activity of the MNK1 kinase the Z-Lyte kinase assay system was used. The kinase activity of MNK1 can be quantified with the Z-Lyte kinase assay kit Ser/Thr 7 peptide (Life Technologies PV3180). The kit was utilized according to the instructions of the provider. A recombinant GST-MNK1 fusion protein produced in and purified from baculovirus infected insect cells was used as enzyme source (GST-MNK1 Life Technologies PV6023 or Carna Biosciences 02-145). It was verified that both sources of the MNK1 enzyme gave similar IC50 values with several compounds. The MNK1 enzyme assay was performed in 384 well round bottom black microtiter plates (Corning 3676). The kinase reaction was performed for 3 hours at 31° C. As instructed by the provider of the kit the amount of enzyme was chosen such that ˜30% of the substrate peptide was phosphorylated in control wells containing buffer only. The MNK1 inhibiting activity of compounds was tested by adding the compounds to the kinase reaction at a concentration of 10000, 5000, 2000, 1000, 500, 200, 100, 50 nM. Compounds with strong MNK1 inhibition were tested at 20, 10, 5, 2, 1 and 0.5 nM in addition. Each compound concentration was tested at least in duplicate. The % phosphorylation of the substrate peptide at each compound concentration was calculated as described in the assay manual. The fluorescent signals were recordes on Biotek Cytation 3 microplate reader. The IC50, the concentration that reduced substrate phosphorylation by 50% if compared to buffer only wells, was calculated with the Grafit 6 software (Erythacus software).

For test [1], the system named is human pancreatic cancer cell line MiaPaCa2 (ATCC CRL-1420). Put plainly: Cell growth assay (CellTiterGlo, 72 hours). The format is cell-based. The following applies: for IC50: MIA PaCa-2, MiaPaCa2 cells, 72 hours, read-out: IC50 MiaPaCa. The method, then: The inhibition of cell growth by the compounds was tested by exposing the human pancreatic cancer cell line MiaPaCa2 (ATCC CRL-1420) to the compounds. The assay was performed in 384 well clear bottom white microtiter plates (Greiner #781098). Each well was seeded with 10^3 cells in 20 μl of Dulbecco's modified Eagle's medium (Sigma D6796) supplied with 10% fetal calf scrum (Sigma F7524), 2.5% horse serum (Sigma H0146), 1% Penicillin-Streptomycin (Sigma P0781), 1% MEM nonessential amino acid solution 100× (Sigma M71459) and 1% 200 mM L-Glutamine (Sigma G7513) culture medium. After overnight incubation at 37° C. in 5% CO2 the compounds were added in the following concentrations: 100, 50, 20, 10, 5, 2, 1, 0.5, 0.2 and 0.1 μM. Each compound concentration was tested in quadruplicate. The incubation was then continued for 72 hours. After 72 hours the growth of the cells was assessed by the addition of the CellTiterGlo reagent (Promega G9242) as instructed by the provider. The luminescent signal was recorded on a SpectraMax M2 microplate reader. The signal obtained in wells containing cells cultivated in the absence of compound was set to 100% growth after subtracting the signal obtained in medium only wells. The % growth in each well was calculated by subtracting the medium only value and dividing through the 100% growth value. The IC50 for cell growth, the concentration of compound at which cell growth was reduced to 50%, was calculated with the GraFit6 software (Erythacus software).
In general terms: ATP-based viability assays read luminescence as a measure of living cells.

Counter-ions that a name gives are not always drawn.

T1 sequence (Q9BUB5 whole entry): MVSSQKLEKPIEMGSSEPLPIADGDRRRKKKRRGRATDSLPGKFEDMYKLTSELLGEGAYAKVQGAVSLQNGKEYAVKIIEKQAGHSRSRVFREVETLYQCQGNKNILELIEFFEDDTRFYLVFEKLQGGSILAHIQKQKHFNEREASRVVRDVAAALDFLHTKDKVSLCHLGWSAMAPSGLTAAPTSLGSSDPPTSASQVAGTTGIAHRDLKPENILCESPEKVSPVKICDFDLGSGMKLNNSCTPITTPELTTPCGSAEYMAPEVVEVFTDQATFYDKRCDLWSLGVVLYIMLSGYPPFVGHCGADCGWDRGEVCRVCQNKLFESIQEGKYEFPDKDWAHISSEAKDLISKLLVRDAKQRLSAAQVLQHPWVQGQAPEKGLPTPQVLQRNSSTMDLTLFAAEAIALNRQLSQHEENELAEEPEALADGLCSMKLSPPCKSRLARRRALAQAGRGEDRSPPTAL

Turning to `Oc1cnccc1NCc1ccc2cncc(-c3cc4ccccc4o3)c2c1` [Example 73], the concentration for half-maximal inhibition (IC50) on MNK1 was found to be 5 nM; in test [1], 15000 nM.

Take `COc1cc(CN2CCC(N)CC2)cc2c(-c3ccco3)cnc(N)c12` [Example 297]: the results for the IC50 (at MNK1; in test [1]) were 290 nM and 1210 nM, respectively. For `N#Cc1cc(CN2CCC(N)CC2)cc2c(-c3cc4ccccc4o3)cncc12` [Example 306, 6-[(4-Amino-1-piperidyl)methyl]-4-(benzofuran-2-yl)isoquinoline-8-carbonitrile], in that order: 179 nM and 9130 nM.

Turning to `c1ccc2oc(-c3cncc4ccc(NCC5CCNCC5)cc34)cc2c1` [Example 213], the figures for the IC50 (at MNK1; in test [1]) were 113 nM and 3480 nM, respectively.

For `NCc1ccc(Nc2ccc3cncc(-c4cc5ccccc5o4)c3c2)cc1` [Example 133], the IC50 at MNK1 is 152 nM; in test [1], 11500 nM. Regarding `c1ccc2oc(-c3cncc4ccc(CN5CCCCC5)cc34)cc2c1` [Example 294], the IC50 on MNK1 was 1520 nM; in test [1], 35300 nM. For `NCCCOCc1ccc2c(N)ncc(-c3ccc(Cl)c(Cl)c3)c2c1` [Example 111], in that order: 1150 nM and 8320 nM. Taken in the same sequence, the figures for `COc1cc(CN2CCC(N)CC2)cc2c(-c3ccc(F)c(F)c3)cnc(N)c12` [Example 296] were 453 nM and 5340 nM. For `NC1CCN(Cc2ccc3cncc(-c4ccc5ncccc5c4)c3c2)CC1` [Example 195], in that order: 797 nM and 16200 nM.

For `N[C@@H]1CCN(Cc2ccc3cncc(-c4cc5ccccc5o4)c3c2)C[C@@H]1F` [Example 206], the IC50 on MNK1 came out at 17 nM; in test [1] it was 8060 nM. Taken in the same sequence, the figures for `NC1CCN(Cc2ccc3cncc(-c4ccncc4)c3c2)CC1` [Example 13] were 285 nM and 24300 nM. For `CO[C@H]1CN(Cc2ccc3cncc(-c4cc5ccccc5o4)c3c2)CC[C@H]1N` [Example 270, (3S,4R/3R,4S)-1-[[4-(Benzofuran-2-yl)-6-isoquinolyl]methyl]-3-methoxy-piperidin-4-amine], the values for the IC50 (on MNK1; in test [1]) were 934 nM and 13700 nM, respectively. For `Nc1cc(NCc2ccc3nncc(-c4cc5ccccc5o4)c3c2)ccn1` [Example 278, N4-[[4-(Benzofuran-2-yl)cinnolin-6-yl]methyl]pyridine-2,4-diamine], in that order: 43 nM and 3570 nM.

Turning to `Nc1ccc(NCc2ccc3cncc(-c4cc5ccccc5o4)c3c2)cc1` [Example 50], the IC50 on MNK1 was found to be 384 nM; in test [1], 5590 nM.

Take `Nc1cc[n+](Cc2ccc3cncc(-c4cc5ccccc5o4)c3c2)c2ccccc12` [Example 54, 1-[[4-(Benzofuran-2-yl)-6-isoquinolyl]methyl]quinolin-1-ium-4-amine]: the figures for the IC50 (on MNK1; in test [1]) were 15 nM and 2850 nM, respectively. For `Nc1ncc(-c2ccc(Cl)c(Cl)c2)c2cc(CN3CCC(N)CC3)ccc12` [Example 217], the IC50 on MNK1 is 3010 nM; in test [1] it was 3060 nM.

As for `NC1CCN(Cc2ccc3cncc(-c4ccc(Cl)cc4)c3c2)CC1` [Example 9], the IC50 at MNK1 is 258 nM; in test [1] it was 10800 nM. Take `N[C@H]1CC[C@H](Nc2ccc3c(=O)[nH]cc(-c4cc5ccccc5o4)c3c2)CC1` [Example 87, 6-[(4-Aminocyclohexyl)amino]-4-(benzofuran-2-yl)-2H-isoquinolin-1-one]: the IC50 is 1980 nM on MNK1 and 4470 nM in test [1].

Consider `NCCCOCc1ccc2cncc(-c3cc4ccccc4o3)c2c1` [Example 105, 3-[[4-(Benzofuran-2-yl)-6-isoquinolyl]methoxy]propan-1-amine], for which the IC50 at MNK1 is 89 nM; in test [1] it was 12800 nM. Turning to `NC1CCN(Cc2ccc3cncc(-c4ccc(NC(=O)Nc5ccc(Cl)cc5)cc4)c3c2)CC1` [Example 113, 1-[4-[6-[(4-Amino-1-piperidyl)methyl]-4-isoquinolyl]phenyl]-3-(4-chlorophenyl)urea], the IC50 at MNK1 worked out at 3150 nM; in test [1], 9210 nM. On to `COc1cc(O[C@H]2CC[C@H](N)CC2)cc2c(-c3ccccc3)cnc(N)c12` [Example 321], for which the figures for the IC50 (on MNK1; in test [1]) were 175 nM and 1310 nM, respectively. As to `NC(=O)c1cccc(-c2cncc3ccc(CN4CCC(N)CC4)cc23)c1` [Example 21], on MNK1, the inhibition at 1 µM is 49%. In addition, the inhibition at 100 µM in test [1] (MIA PaCa-2, at 100 μM, read-out: Inhibition of MiaPaCa growth at indicated concentration) worked out at 64%. For the compound `NCCCOCc1ccc2c(N)ncc(-c3cc4ccccc4o3)c2c1` [Example 109, 6-(3-Aminopropoxymethyl)-4-(benzofuran-2-yl)isoquinolin-1-amine], the IC50 is 687 nM on MNK1 and 8540 nM in test [1]. `c1ccc2oc(-c3cncc4ccc(CNc5ccnnc5)cc34)cc2c1` [Example 131, N-[[4-(benzofuran-2-yl)-6-isoquinolyl]methyl]pyridazin-4-amine]: at MNK1, the IC50 was determined as 24 nM.

For `NC1CCN(Cc2ccc3cncc(-c4ccc(C(=O)O)cc4)c3c2)CC1` [Example 29, 4-[6-[(4-Amino-1-piperidyl)methyl]-4-isoquinolyl]benzoic acid], at MNK1, the inhibition at 1 µM is 43%. Take `N#Cc1ccccc1-c1cncc2ccc(CN3CCC(N)CC3)cc12` [Example 8]: the inhibition at 10 µM at MNK1 came to 95%.

For `c1ccc2oc(-c3cncc4ccc(NC5CCNCC5)cc34)cc2c1` [Example 82], the IC50 in test [1] was determined as 2170 nM. For the compound `NC(=O)Nc1ccc(-c2cncc3ccc(CN4CCC(N)CC4)cc23)cc1` [Example 33, [4-[6-[(4-Amino-1-piperidyl)methyl]-4-isoquinolyl]phenyl]urea], at MNK1, the IC50 was 866 nM.

Regarding `Fc1cc(NCc2ccc3cncc(-c4cc5ccccc5o4)c3c2)ccn1` [Example 63], the IC50 at MNK1 worked out at 68 nM. The same measure, in the same setting: under `COc1cc(NCc2ccc3cncc(-c4cc5ccccc5o4)c3c2)ccn1` [Example 65] stands 157 nM. For the compound `O=c1[nH]cc(-c2cc3ccccc3o2)c2cc(NCc3ccncc3)ccc12` [Example 89, 4-(Benzofuran-2-yl)-6-(4-pyridylmethylamino)-2H-isoquinolin-1-one], the inhibition at 10 µM on MNK1 came out at 35%. Turning to `Oc1ccc(-c2cncc3ccc(CNC4CCCNC4)cc23)cc1` (centres unmarked) [Example 39], the IC50 at MNK1 was 496 nM. As to `NC1CCN(Cc2ccc3cncc(-c4cccc(C(=O)O)c4)c3c2)CC1` [Example 30], the inhibition at 1 µM on MNK1 is 34%. Take `Clc1cc(NCc2ccc3cncc(-c4cc5ccccc5o4)c3c2)ccn1` [Example 62]: the IC50 at MNK1 is 2140 nM. Turning to `N[C@H]1CC[C@@H](Nc2ccc3cncc(-c4cc5ccccc5o4)c3c2)CC1` [Example 81, N4-[4-(Benzofuran-2-yl)-6-isoquinolyl]cyclohexane-1,4-diamine], in test [1], the IC50 turned out to be 2210 nM. As for `O=c1[nH]cc(-c2ccccc2)c2cc(NCc3ccncc3)ccc12` [Example 90], on MNK1, the IC50 was found to be 1060 nM. For the compound `Nc1ncc(-c2cc3ccccc3o2)c2cc(O[C@H]3CC[C@H](N)CC3)cc(Cl)c12` [Example 320], the IC50 on MNK1 is 94 nM. In the case of `N[C@H]1CC[C@H](Nc2ccc3c(=O)[nH]cc(-c4ccccc4)c3c2)CC1` [Example 88], the IC50 at MNK1 is 171 nM. Same read-out and setting: as for `c1cncc(NCc2ccc3cncc(-c4cc5ccccc5o4)c3c2)c1` [Example 60, N-[[4-(Benzofuran-2-yl)-6-isoquinolyl]methyl]pyridin-3-amine], the figure is 135 nM. On to `NC(=O)Nc1cccc(-c2cncc3ccc(CN4CCC(N)CC4)cc23)c1` [Example 34], for which, at MNK1, the half-maximal inhibitory concentration (IC50) turned out to be 1090 nM.

Take `NC1CCN(Cc2ccc3cncc(-c4ccccn4)c3c2)CC1` [Example 15]: the IC50 at MNK1 worked out at 3960 nM. With `Nc1cc[n+](Cc2ccc3cnc(N)c(-c4cc5ccccc5o4)c3c2)cc1` [Example 166, 6-[(4-Aminopyridin-1-ium-1-yl)methyl]-4-(benzofuran-2-yl)isoquinolin-3-amine trifluoroacetate], the IC50 on MNK1 is 57 nM.

The term IC50 denotes the midpoint of a concentration-inhibition curve.

The values are drawn from patent US20200031811A1, “SUBSTITUTED MONO- AND POLYAZANAPHTHALENE DERIVATIVES AND THEIR USE” (Basilea Pharmaceutica International AG, priority 2015, published 2020).
